Experimental data published in patent publication US7601512B2, “Methods for identifying inhibitors of the 20S and 26S proteasome” (Bayer CropScience AG, priority 2002, dated 2009).
≈ marks a conversion by molar mass, not a printed value. *1 amine or outer side, *2 acyl side, *3 side chain or, on linkers, in order; H or OH if unused. Where a SMILES comes first, the peptide text is derived from it. [ ]: non-standard residue; d: D form. The star is where a group is joined. AMC = Cc1cc(=O)oc2cc(N*)ccc12; Suc = O=C(CCC(=O)[*:2])[*:1]; Nva = CCC[C@H](N)C(=O)O; Cbz = O=C(OCc1ccccc1)*

Columns and labels:
[1] = test system: Botrytis cinerea (BOTRCI); test: agar diffusion assay (fungicidal action, MIC); format: cell-based
[2] = test system: Fusarium culmorum (FUSACU); test: agar diffusion assay (fungicidal action, MIC); format: cell-based
[3] = test system: Pseudocercosporella herpotrichoides (PSDCHW); test: agar diffusion assay (fungicidal action, MIC); format: cell-based; details: PSDCHR
[4] = test system: Pyricularia orycae (PYRIOR); test: microbe, parasite or virus in culture; format: cell-based
[5] = test system: Rhizoctonia solani (RHIZSO); test: agar diffusion assay (fungicidal action, MIC); format: cell-based
Ustilago maydis (USTIMA) = test: agar diffusion assay (fungicidal action, MIC); format: cell-based
[6] = cited from earlier work
20S proteasome [7] = details: read-out: KM for Suc-LLVY-AMC; approx. 70 ng proteasomes per reaction, Lineweaver-Burke
Experimental: A constant amount of proteasomes (approx. 70 ng per reaction) was incubated with increasing amounts of substrate and the increase in fluorescence was then determined over a period of 5 minutes. The slopes of the curve (dotted line) were determined by calculating trend lines.

20S proteasome [8] = test: 20S proteasome activity/inhibition assay with Suc-LLVY-AMC (AMC fluorescence); format: biochemical, yeast; Ustilago maydis; details: 40 nM MG-132, FIGS. 1 and 2
Experimental: FIG. 1 is an activity assay for the 20S proteasome from yeast. The substrate used for the chymotryptic activity was Suc-LLVY-AMC (SEQ. ID. NO. 1). Liberation of AMC was determined fluorometrically as a function of time. The proteasome activity was determined in a 1:100 dilution of a yeast extract in the presence of 40 nM MG132 and in the absence of MG-132. As a negative control, the reaction was carried out without enzyme (buffer).
FIG. 2 is an activity assay for the 20S proteasome from Ustilago maydis. The substrate used for the chymotryptic activity was Suc-LLVY-AMC (SEQ. ID. NO. 1). Liberation of AMC was determined fluorometrically as a function of time. The proteasome activity was determined in a 1:100 and 1:20 dilution of a U. maydis preparation. […]
The proteolytic activity measurable in this way can be influenced by an inhibitor such as, for example, MG-132, resulting in a lower relative fluorescence being observed (FIGS. 1 and 2). […]
The activity and inhibition assay which makes use of the known inhibitor MG-132 from Calbiochem and which is intended to check the usability of the method of the invention was carried out in 384-well MTPs (microtitre plates with 384 wells). […] The preliminary measurement (fluorescence) was carried out at 360/465 nm (35 nm bandwidth). […] The fluorescence was measured again at 360/465 nm (35 nm bandwidth).

S. cerevisiae = details: 30° C., Lee and Goldberg (1998); cited from earlier work

CCC[C@@H](C=O)NC(=O)[C@H](CC(C)C)NC(=O)[C@H](CC(C)C)NC(=O)OCc1ccccc1 [Example 1, Carbobenzoxy-L-leucyl-L-leucyl-L-norvalinal] (Cbz-Leu-Leu-[Nva]-aldehyde)
MIC ([1]; Botrytis cinerea, read-out: MIC (minimum inhibitory concentration)): 58.6 mg/L (≈ 127 µM) | MIC ([2]; Fusarium culmorum, FUSACU, agar diffusion assay, read-out: MIC (minimum inhibitory concentration)): > 1000 mg/L | MIC ([3]; Oculimacula yallundae, read-out: MIC (minimum inhibitory concentration)): > 1000 mg/L | MIC ([4]; Pyricularia, read-out: MIC (minimum inhibitory concentration)): 2 mg/L (≈ 4.33 µM) | MIC ([5]; Rhizoctonia solani, read-out: MIC (minimum inhibitory concentration)): > 1000 mg/L | MIC (Ustilago maydis (USTIMA); Mycosarcoma maydis, read-out: MIC (minimum inhibitory concentration)): 750 mg/L (≈ 1620 µM)

Suc-Leu-Leu-Val-Tyr-AMC (Suc-LLVY-{AMC}; SMILES Cc1cc(=O)oc2cc(NC(=O)[C@H](Cc3ccc(O)cc3)NC(=O)[C@@H](NC(=O)[C@H](CC(C)C)NC(=O)[C@H](CC(C)C)NC(=O)CCC(=O)O)C(C)C)ccc12) [Suc-LLVY-AMC]
solubility in DMSO [6]: 50 mg/mL | Km (20S proteasome [7]): 5 µM

Aprotinin [Example 2]
MIC (minimum inhibitory concentration) [1]: 339.3 ppm | MIC (minimum inhibitory concentration) [2]: >1000 ppm | MIC (minimum inhibitory concentration) [3]: >1000 ppm | MIC (minimum inhibitory concentration) ([4]; PYRIOR, agar diffusion assay): 18.0 ppm | MIC (minimum inhibitory concentration) [5]: >1000 ppm | MIC (minimum inhibitory concentration) (Ustilago maydis (USTIMA)): 750 ppm

CC(C)C[C@@H](C=O)NC(=O)[C@H](CC(C)C)NC(=O)[C@H](CC(C)C)NC(=O)OCc1ccccc1 [MG-132, Z-Leu-Leu-Leu-CHO] (Cbz-Leu-Leu-Leu-aldehyde)
relative fluorescence (proteasome activity) in presence of inhibitor (20S proteasome [8]): markedly reduces the relative fluorescence | effect on the growth rate of yeast cells (S. cerevisiae): only a minimum effect, if any
